Results taken from US11919885B1, “4-(4-bromophenyl)-2-alkyloxy-6-(2-oxo-2H-1-benzopyran-3-yl)pyridine-3-carbonitrile as antimicrobial compounds” (KING FAISAL UNIVERSITY, priority 2023, dated 2024).

Tested on: Bacillus cereus
Test: Agar plate disc-diffusion, antibacterial activity (inhibition zone)
Format: cell-based
Conditions: A = concentration of comp. = 10,000 μL; nutrient agar, 37° C., 48 h; DMSO control zone subtracted
Procedure: (§1) The agar plate disc-diffusion method was applied. Sterilized filter papers (6 mm in diameter) were wetted with 10 μL of a solution of 4-(4-Bromophenyl)-2-ethoxy-6-(2-oxo-2H-1-benzopyran-3-yl)-4-phenylpyridine-3-carbonitrile (1) or 4-(4-Bromophenyl)-2-methoxy-6-(2-oxo-2H-1-benzopyran-3-yl)-4-phenylpyridine-3-carbonitrile (2) to be tested, containing […], and the discs were allowed to air dry. The discs were then placed onto the surface of agar plates (nutrient agar for bacteria and Sabouraud's dextrose agar for fungi) seeded with the test organism. Each plate contained 15 mL of the agar medium, previously seeded with 0.2 mL of the broth culture of each organism pregrown for 18 hours. The plates were incubated at 37° C. for 48 h, and 72 h for fungi. The inhibition zones were measured in mm. Discs impregnated with DMSO were used as a control, and its inhibition zone was subtracted from the tested compound actual inhibition zone.
(§2) The results of the antimicrobial testing can be observed in Tables 1 and 2, below, using ciprofloxacin as a reference.

Row | SMILES | inhibition zone, Bacillus Cereus, A
1 | CCOc1nc(-c2cc3ccccc3oc2=O)cc(-c2ccc(Br)cc2)c1C#N [Compound 1, 4-(4-Bromophenyl)-2-ethoxy-6-(2-oxo-2H-1-benzopyran-3-yl)pyridine-3-carbonitrile] | 30 mm
2 | COc1nc(-c2cc3ccccc3oc2=O)cc(-c2ccc(Br)cc2)c1C#N [Compound 2, 4-(4-Bromophenyl)-2-methoxy-6-(2-oxo-2H-1-benzopyran-3-yl)pyridine-3-carbonitrile] | 25 mm

Same assay, conditions: B = concentration of comp. = 30.000 μL; nutrient agar, 37° C., 48 h; DMSO control zone subtracted

Row | SMILES | inhibition zone, Bacillus Cereus, B
3 | CCOc1nc(-c2cc3ccccc3oc2=O)cc(-c2ccc(Br)cc2)c1C#N [Compound 1, 4-(4-Bromophenyl)-2-ethoxy-6-(2-oxo-2H-1-benzopyran-3-yl)pyridine-3-carbonitrile] | 34 mm
4 | COc1nc(-c2cc3ccccc3oc2=O)cc(-c2ccc(Br)cc2)c1C#N [Compound 2, 4-(4-Bromophenyl)-2-methoxy-6-(2-oxo-2H-1-benzopyran-3-yl)pyridine-3-carbonitrile] | 32 mm

Same assay, conditions: C = concentration of comp. = 50,000 μL; nutrient agar, 37° C., 48 h; DMSO control zone subtracted

Row | SMILES | inhibition zone, Bacillus Cereus, C
5 | CCOc1nc(-c2cc3ccccc3oc2=O)cc(-c2ccc(Br)cc2)c1C#N [Compound 1, 4-(4-Bromophenyl)-2-ethoxy-6-(2-oxo-2H-1-benzopyran-3-yl)pyridine-3-carbonitrile] | 40 mm
6 | COc1nc(-c2cc3ccccc3oc2=O)cc(-c2ccc(Br)cc2)c1C#N [Compound 2, 4-(4-Bromophenyl)-2-methoxy-6-(2-oxo-2H-1-benzopyran-3-yl)pyridine-3-carbonitrile] | 37 mm

Tested on: Escherichia coli
Test: as above
Format: cell-based
Conditions: A = concentration of comp. = 10,000 μL; nutrient agar, 37° C., 48 h; DMSO control zone subtracted
Procedure: as §1, §2

Row | SMILES | inhibition zone, Escherichia coli, A
7 | CCOc1nc(-c2cc3ccccc3oc2=O)cc(-c2ccc(Br)cc2)c1C#N [Compound 1, 4-(4-Bromophenyl)-2-ethoxy-6-(2-oxo-2H-1-benzopyran-3-yl)pyridine-3-carbonitrile] | 30 mm
8 | COc1nc(-c2cc3ccccc3oc2=O)cc(-c2ccc(Br)cc2)c1C#N [Compound 2, 4-(4-Bromophenyl)-2-methoxy-6-(2-oxo-2H-1-benzopyran-3-yl)pyridine-3-carbonitrile] | 29 mm

Same assay, conditions: B = concentration of comp. = 30.000 μL; nutrient agar, 37° C., 48 h; DMSO control zone subtracted

Row | SMILES | inhibition zone, Escherichia coli, B
9 | CCOc1nc(-c2cc3ccccc3oc2=O)cc(-c2ccc(Br)cc2)c1C#N [Compound 1, 4-(4-Bromophenyl)-2-ethoxy-6-(2-oxo-2H-1-benzopyran-3-yl)pyridine-3-carbonitrile] | 40 mm
10 | COc1nc(-c2cc3ccccc3oc2=O)cc(-c2ccc(Br)cc2)c1C#N [Compound 2, 4-(4-Bromophenyl)-2-methoxy-6-(2-oxo-2H-1-benzopyran-3-yl)pyridine-3-carbonitrile] | 37 mm

Same assay, conditions: C = concentration of comp. = 50,000 μL; nutrient agar, 37° C., 48 h; DMSO control zone subtracted

Row | SMILES | inhibition zone, Escherichia coli, C
11 | CCOc1nc(-c2cc3ccccc3oc2=O)cc(-c2ccc(Br)cc2)c1C#N [Compound 1, 4-(4-Bromophenyl)-2-ethoxy-6-(2-oxo-2H-1-benzopyran-3-yl)pyridine-3-carbonitrile] | 50 mm
12 | COc1nc(-c2cc3ccccc3oc2=O)cc(-c2ccc(Br)cc2)c1C#N [Compound 2, 4-(4-Bromophenyl)-2-methoxy-6-(2-oxo-2H-1-benzopyran-3-yl)pyridine-3-carbonitrile] | 48 mm

Tested on: Pseudomonas aeruginosa
Test: as above
Format: cell-based
Conditions: A = concentration of comp. = 10,000 μL; nutrient agar, 37° C., 48 h; DMSO control zone subtracted
Procedure: as §1, §2

Row | SMILES | inhibition zone, Pseudomonas aeruginosa, A
13 | CCOc1nc(-c2cc3ccccc3oc2=O)cc(-c2ccc(Br)cc2)c1C#N [Compound 1, 4-(4-Bromophenyl)-2-ethoxy-6-(2-oxo-2H-1-benzopyran-3-yl)pyridine-3-carbonitrile] | 25 mm
14 | COc1nc(-c2cc3ccccc3oc2=O)cc(-c2ccc(Br)cc2)c1C#N [Compound 2, 4-(4-Bromophenyl)-2-methoxy-6-(2-oxo-2H-1-benzopyran-3-yl)pyridine-3-carbonitrile] | 27 mm

Same assay, conditions: B = concentration of comp. = 30.000 μL; nutrient agar, 37° C., 48 h; DMSO control zone subtracted

Row | SMILES | inhibition zone, Pseudomonas aeruginosa, B
15 | CCOc1nc(-c2cc3ccccc3oc2=O)cc(-c2ccc(Br)cc2)c1C#N [Compound 1, 4-(4-Bromophenyl)-2-ethoxy-6-(2-oxo-2H-1-benzopyran-3-yl)pyridine-3-carbonitrile] | 30 mm
16 | COc1nc(-c2cc3ccccc3oc2=O)cc(-c2ccc(Br)cc2)c1C#N [Compound 2, 4-(4-Bromophenyl)-2-methoxy-6-(2-oxo-2H-1-benzopyran-3-yl)pyridine-3-carbonitrile] | 33 mm

Same assay, conditions: C = concentration of comp. = 50,000 μL; nutrient agar, 37° C., 48 h; DMSO control zone subtracted

Row | SMILES | inhibition zone, Pseudomonas aeruginosa, C
17 | CCOc1nc(-c2cc3ccccc3oc2=O)cc(-c2ccc(Br)cc2)c1C#N [Compound 1, 4-(4-Bromophenyl)-2-ethoxy-6-(2-oxo-2H-1-benzopyran-3-yl)pyridine-3-carbonitrile] | 39 mm
18 | COc1nc(-c2cc3ccccc3oc2=O)cc(-c2ccc(Br)cc2)c1C#N [Compound 2, 4-(4-Bromophenyl)-2-methoxy-6-(2-oxo-2H-1-benzopyran-3-yl)pyridine-3-carbonitrile] | 40 mm

Tested on: Staphylococcus aureus
Test: as above
Format: cell-based
Conditions: A = concentration of comp. = 10,000 μL; nutrient agar, 37° C., 48 h; DMSO control zone subtracted
Procedure: as §1, §2

Row | SMILES | inhibition zone, Staphylococcus aureus, A
19 | CCOc1nc(-c2cc3ccccc3oc2=O)cc(-c2ccc(Br)cc2)c1C#N [Compound 1, 4-(4-Bromophenyl)-2-ethoxy-6-(2-oxo-2H-1-benzopyran-3-yl)pyridine-3-carbonitrile] | 20 mm
20 | COc1nc(-c2cc3ccccc3oc2=O)cc(-c2ccc(Br)cc2)c1C#N [Compound 2, 4-(4-Bromophenyl)-2-methoxy-6-(2-oxo-2H-1-benzopyran-3-yl)pyridine-3-carbonitrile] | 15 mm

Same assay, conditions: B = concentration of comp. = 30.000 μL; nutrient agar, 37° C., 48 h; DMSO control zone subtracted

Row | SMILES | inhibition zone, Staphylococcus aureus, B
21 | CCOc1nc(-c2cc3ccccc3oc2=O)cc(-c2ccc(Br)cc2)c1C#N [Compound 1, 4-(4-Bromophenyl)-2-ethoxy-6-(2-oxo-2H-1-benzopyran-3-yl)pyridine-3-carbonitrile] | 25 mm
22 | COc1nc(-c2cc3ccccc3oc2=O)cc(-c2ccc(Br)cc2)c1C#N [Compound 2, 4-(4-Bromophenyl)-2-methoxy-6-(2-oxo-2H-1-benzopyran-3-yl)pyridine-3-carbonitrile] | 22 mm

Same assay, conditions: C = concentration of comp. = 50,000 μL; nutrient agar, 37° C., 48 h; DMSO control zone subtracted

Row | SMILES | inhibition zone, Staphylococcus aureus, C
23 | CCOc1nc(-c2cc3ccccc3oc2=O)cc(-c2ccc(Br)cc2)c1C#N [Compound 1, 4-(4-Bromophenyl)-2-ethoxy-6-(2-oxo-2H-1-benzopyran-3-yl)pyridine-3-carbonitrile] | 35 mm
24 | COc1nc(-c2cc3ccccc3oc2=O)cc(-c2ccc(Br)cc2)c1C#N [Compound 2, 4-(4-Bromophenyl)-2-methoxy-6-(2-oxo-2H-1-benzopyran-3-yl)pyridine-3-carbonitrile] | 30 mm

Tested on: Chrysosporium keratinophilum
Test: Agar plate disc-diffusion, antifungal activity (inhibition zone)
Format: cell-based
Conditions: A = concentration of comp. = 10,000 μL; Sabouraud's dextrose agar, 37° C., 72 h; DMSO control zone subtracted
Procedure: as §1, §2

Row | SMILES | inhibition zone, Chrysosporium keratinophilum, A
25 | CCOc1nc(-c2cc3ccccc3oc2=O)cc(-c2ccc(Br)cc2)c1C#N [Compound 1, 4-(4-Bromophenyl)-2-ethoxy-6-(2-oxo-2H-1-benzopyran-3-yl)pyridine-3-carbonitrile] | 24 mm
26 | COc1nc(-c2cc3ccccc3oc2=O)cc(-c2ccc(Br)cc2)c1C#N [Compound 2, 4-(4-Bromophenyl)-2-methoxy-6-(2-oxo-2H-1-benzopyran-3-yl)pyridine-3-carbonitrile] | 25 mm

Same assay, conditions: B = concentration of comp. = 30.000 μL; Sabouraud's dextrose agar, 37° C., 72 h; DMSO control zone subtracted

Row | SMILES | inhibition zone, Chrysosporium keratinophilum, B
27 | CCOc1nc(-c2cc3ccccc3oc2=O)cc(-c2ccc(Br)cc2)c1C#N [Compound 1, 4-(4-Bromophenyl)-2-ethoxy-6-(2-oxo-2H-1-benzopyran-3-yl)pyridine-3-carbonitrile] | 29 mm
28 | COc1nc(-c2cc3ccccc3oc2=O)cc(-c2ccc(Br)cc2)c1C#N [Compound 2, 4-(4-Bromophenyl)-2-methoxy-6-(2-oxo-2H-1-benzopyran-3-yl)pyridine-3-carbonitrile] | 28 mm

Same assay, conditions: C = concentration of comp. = 50,000 μL; Sabouraud's dextrose agar, 37° C., 72 h; DMSO control zone subtracted

Row | SMILES | inhibition zone, Chrysosporium keratinophilum, C
29 | CCOc1nc(-c2cc3ccccc3oc2=O)cc(-c2ccc(Br)cc2)c1C#N [Compound 1, 4-(4-Bromophenyl)-2-ethoxy-6-(2-oxo-2H-1-benzopyran-3-yl)pyridine-3-carbonitrile] | 42 mm
30 | COc1nc(-c2cc3ccccc3oc2=O)cc(-c2ccc(Br)cc2)c1C#N [Compound 2, 4-(4-Bromophenyl)-2-methoxy-6-(2-oxo-2H-1-benzopyran-3-yl)pyridine-3-carbonitrile] | 40 mm

Tested on: Aspergillus flavus
Test: as above
Format: cell-based
Conditions: A = concentration of comp. = 10,000 μL; Sabouraud's dextrose agar, 37° C., 72 h; DMSO control zone subtracted
Procedure: as §1, §2

Row | SMILES | inhibition zone, Aspergillus flavus, A
31 | CCOc1nc(-c2cc3ccccc3oc2=O)cc(-c2ccc(Br)cc2)c1C#N [Compound 1, 4-(4-Bromophenyl)-2-ethoxy-6-(2-oxo-2H-1-benzopyran-3-yl)pyridine-3-carbonitrile] | 28 mm
32 | COc1nc(-c2cc3ccccc3oc2=O)cc(-c2ccc(Br)cc2)c1C#N [Compound 2, 4-(4-Bromophenyl)-2-methoxy-6-(2-oxo-2H-1-benzopyran-3-yl)pyridine-3-carbonitrile] | 20 mm

Same assay, conditions: B = concentration of comp. = 30.000 μL; Sabouraud's dextrose agar, 37° C., 72 h; DMSO control zone subtracted

Row | SMILES | inhibition zone, Aspergillus flavus, B
33 | CCOc1nc(-c2cc3ccccc3oc2=O)cc(-c2ccc(Br)cc2)c1C#N [Compound 1, 4-(4-Bromophenyl)-2-ethoxy-6-(2-oxo-2H-1-benzopyran-3-yl)pyridine-3-carbonitrile] | 30 mm
34 | COc1nc(-c2cc3ccccc3oc2=O)cc(-c2ccc(Br)cc2)c1C#N [Compound 2, 4-(4-Bromophenyl)-2-methoxy-6-(2-oxo-2H-1-benzopyran-3-yl)pyridine-3-carbonitrile] | 21 mm

Same assay, conditions: C = concentration of comp. = 50,000 μL; Sabouraud's dextrose agar, 37° C., 72 h; DMSO control zone subtracted

Row | SMILES | inhibition zone, Aspergillus flavus, C
35 | CCOc1nc(-c2cc3ccccc3oc2=O)cc(-c2ccc(Br)cc2)c1C#N [Compound 1, 4-(4-Bromophenyl)-2-ethoxy-6-(2-oxo-2H-1-benzopyran-3-yl)pyridine-3-carbonitrile] | 41 mm
36 | COc1nc(-c2cc3ccccc3oc2=O)cc(-c2ccc(Br)cc2)c1C#N [Compound 2, 4-(4-Bromophenyl)-2-methoxy-6-(2-oxo-2H-1-benzopyran-3-yl)pyridine-3-carbonitrile] | 31 mm
